Data published in patent US11466016B2, “Pharmaceutical compounds” (priority 2018, dated 2022).
Where a name gives a salt, the structure may show the parent alone.

The compounds below were run against SHP2 (Homo sapiens (Human), UniProt Q06124) (assay: SHP2 Biochemical Assay (DiFMUP conversion, pIRS1 activating peptide)). Conditions: not given.
Chain of SHP2 (Q06124 whole entry): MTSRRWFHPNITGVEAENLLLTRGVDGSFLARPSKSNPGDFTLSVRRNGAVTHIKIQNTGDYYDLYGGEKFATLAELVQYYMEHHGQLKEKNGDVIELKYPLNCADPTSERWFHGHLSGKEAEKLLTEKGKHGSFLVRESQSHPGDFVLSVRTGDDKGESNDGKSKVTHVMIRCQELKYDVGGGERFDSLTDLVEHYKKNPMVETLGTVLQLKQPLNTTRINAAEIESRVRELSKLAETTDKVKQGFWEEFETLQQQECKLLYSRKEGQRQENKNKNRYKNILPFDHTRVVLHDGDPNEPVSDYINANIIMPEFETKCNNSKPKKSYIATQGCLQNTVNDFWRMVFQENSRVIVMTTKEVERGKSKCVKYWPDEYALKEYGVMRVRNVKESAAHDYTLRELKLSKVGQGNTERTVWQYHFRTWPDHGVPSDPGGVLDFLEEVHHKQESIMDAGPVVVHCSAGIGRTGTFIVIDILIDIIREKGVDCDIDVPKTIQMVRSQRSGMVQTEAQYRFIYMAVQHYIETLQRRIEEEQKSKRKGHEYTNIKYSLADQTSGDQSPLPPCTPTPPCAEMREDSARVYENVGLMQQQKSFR

Which IC50 does the source give for `Cc1nc2ccc(-c3n[nH]c4nc(N5[C@@H]6CC[C@H]5C[C@@H](N)C6)c(CO)nc34)c(Cl)c2s1` [Example 128, {6-[endo-3-amino-8-azabicyclo[3.2.1]octan-8-yl]-3-(7-chloro-2-methyl-1,3-benzothiazol-6-yl)-1H-pyrazolo[3,4-b]pyrazin-5-yl}methanol] here?
The IC50 was 7.3 nM.

Which IC50 does the source give for `CN(C)c1cnc2ccc(-c3n[nH]c4nc(N5[C@@H]6CC[C@H]5[C@@H](F)[C@@H](N)C6)c(CO)nc34)c(Cl)c2n1` [Example 130, {6-[(1S,2S,3S,5R)-3-amino-2-fluoro-8-azabicyclo[3.2.1]octan-8-yl]-3-[5-chloro-3-(dimethylamino)quinoxalin-6-yl]-1H-pyrazolo[3,4-b]pyrazin-5-yl}methanol] here?
The IC50 was 9.5 nM.

For `CN(C)c1cnc2ccc(-c3n[nH]c4nc(N5[C@@H]6CC[C@H]5C[C@@](C)(N)C6)c(CO)nc34)c(Cl)c2n1` [Example 131, {6-[endo-3-amino-3-methyl-8-azabicyclo[3.2.1]octan-8-yl]-3-[5-chloro-3-(dimethylamino)quinoxalin-6-yl]-1H-pyrazolo[3,4-b]pyrazin-5-yl}methanol], which IC50 is on record?
Its IC50 is 8.8 nM.

Same assay, conditions: DiFMUP substrate, 0.25 μM pIRS1 peptide, 30 min pre-incubation; average where more than one data point; read-out: SHP2 (IC50)

With `CCn1nc2ccc(-c3n[nH]c4nc(N5[C@H]6CC[C@@H]5[C@@H](F)[C@@H](N)C6)c(CO)nc34)c(Cl)c2c1C#N` [Example 126, 5-{6-[(1R,2S,3S,5S)-3-amino-2-fluoro-8-azabicyclo[3.2.1]octan-8-yl]-5-(hydroxymethyl)-1H-pyrazolo[3,4-b]pyrazin-3-yl}-4-chloro-2-ethyl-2H-indazole-3-carbonitrile] as the compound, how does the IC50 read?
The IC50 was 9.7 nM.

With `CCn1nc2ccc(-c3n[nH]c4nc(N5[C@H]6CC[C@@H]5[C@@H](F)[C@@H](N)C6)c(C)nc34)c(Cl)c2c1C#N` [Example 127, 5-{6-[(1R,2S,3S,5S)-3-amino-2-fluoro-8-azabicyclo[3.2.1]octan-8-yl]-5-methyl-1H-pyrazolo[3,4-b]pyrazin-3-yl}-4-chloro-2-ethyl-2H-indazole-3-carbonitrile, hydrochloride salt] as the compound, how does the IC50 read?
The IC50 was 14 nM.

How did the IC50 turn out when `Cn1nc2ccc(-c3n[nH]c4nc(N5[C@H]6CC[C@@H]5[C@@H](F)[C@@H](N)C6)c(CO)nc34)c(Cl)c2c1C#N` [Example 129, 5-{6-[(1R,2S,3S,5S)-3-amino-2-fluoro-8-azabicyclo[3.2.1]octan-8-yl]-5-(hydroxymethyl)-1H-pyrazolo[3,4-b]pyrazin-3-yl}-4-chloro-2-methyl-2H-indazole-3-carbonitrile] was run?
Its IC50 is 5 nM.

For `Cc1nc2c(-c3ccc4nc(CO)sc4c3Cl)n[nH]c2nc1N1[C@H]2CC[C@@H]1[C@@H](F)[C@@H](N)C2` [Example 132, (6-{6-[(1R,2S,3S,5S)-3-amino-2-fluoro-8-azabicyclo[3.2.1]octan-8-yl]-5-methyl-1H-pyrazolo[3,4-b]pyrazin-3-yl}-7-chloro-1,3-benzothiazol-2-yl)methanol, hydrochloride], which IC50 is on record?
The IC50 was 11 nM.

With `CN(C)c1cnc2ccc(-c3n[nH]c4nc(N5[C@@H]6CC[C@H]5C[C@@H](N)C6)c(CO)nc34)c(Cl)c2n1` [Example 133, {6-[endo-3-amino-8-azabicyclo[3.2.1]octan-8-yl]-3-[5-chloro-3-(dimethylamino)quinoxalin-6-yl]-1H-pyrazolo[3,4-b]pyrazin-5-yl}methanol] as the compound, how does the IC50 read?
Its IC50 is 6 nM.

For `COc1cnc2ccc(-c3n[nH]c4nc(N5[C@@H]6CC[C@H]5C[C@@](C)(N)C6)c(CO)nc34)c(Cl)c2n1` [Example 134, {6-[endo-3-amino-3-methyl-8-azabicyclo[3.2.1]octan-8-yl]-3-(5-chloro-3-methoxyquinoxalin-6-yl)-1H-pyrazolo[3,4-b]pyrazin-5-yl}methanol], which IC50 is on record?
The IC50 was 10 nM.

`COc1cnc2ccc(-c3n[nH]c4nc(N5[C@@H]6CC[C@H]5C[C@@H](N)C6)c(C)nc34)c(Cl)c2n1` [Example 135, endo-8-[3-(5-chloro-3-methoxyquinoxalin-6-yl)-5-methyl-1H-pyrazolo[3,4-b]pyrazin-6-yl]-8-azabicyclo[3.2.1]octan-3-amine] was tested. Which IC50 did it give?
The IC50 was 16 nM.
